The subject of this test is TSLP. Put plainly: TNF-α-induced TSLP in HaCaT cells (ELISA). It is filed as cell-based, human. The conditions noted are these: HaCaT culture supernatant, TNF-α stimulated, 1 h pretreatment, equal amounts of compounds. The method, then:
Human keratinocyte HaCaT cells (obtained from the Korean Cell Line Bank) were seeded in a 12-well plate at an initial density of 2×10^5 cells/well and cultured at 37° C. for 16 to 24 hours. FK506 (Sigma), compounds 27 and 29 of the present invention were then added to the HaCaT cell culture medium at final concentrations of 0, 1, 2, 4, and 8 µg/mL, and the cells were cultured at 37° C. for 1 hour. Next, to induce TSLP, the culture medium was treated with TNF-α (Sigma-Aldrich, USA) to a final concentration of 100 ng/mL, and the cells were cultured for an additional 24 hours at 37° C. The culture supernatant was collected, and the amount of induced TSLP from HaCaT cells was determined using an ELISA kit (R&D Systems, USA) according to the manufacturer's instructions. […] Under the same conditions, to compare the TSLP reduction efficiency R.R. (Reduction rate) of compound 27, positive control compound and compound 29, equal amounts of compounds 27, 29 and FK506 (Sigma-Aldrich, USA) were pretreated for 1 hour. The amount of TSLP released into the culture supernatant from HaCaT cells stimulated by TNF-α was quantitatively analyzed and presented in Table 3 and FIG. 3 (c).

Data on 1 molecule can be found in patent publication US20250205195A1, “BENZYLOXY-BENZYLAMINYL AMINO ACID DERIVATIVE FOR ADJUSTING TSLP/TSLPR SIGNAL TRANSMISSION” (AMTIXBIO CO., LTD., priority 2021, published 2025).

Molecules are shown by their SMILES.

Turning to `CCC(NC)C(=O)NCc1ccc(OCc2ccc(Cl)cc2)cc1` (racemic) [Compound 29, (R)/(S)—N-(4-((4-chlorobenzyl)oxy)benzyl)-2-(methylamino)butanamide], the “R.R (Reduction rate) of TSLP” value turned out to be 58% and the TSLP came to 210 ng/mL.
